The values below come from patent publication US10688193B2, “PH-sensitive linkers for delivering a therapeutic agent” (GNT BIOTECH & MEDICALS CORPORATION, priority 2015, dated 2020).

Data set [1] can be described thus: Cytotoxicity assay of Au/LKs/Dox complexes (MTS, 72 hours). It counts as cell-based. As to conditions: human, H184B5F5/M10 mammary epithelial cells; M10, 72 hrs; read-out: IC50 value for complex cytotoxicity. As for the experimental part: (§1) We examined the cytotoxicity of Au/LKs/Dox complexes and the IC50 value was calculated. […] The CellTiter 96® AQueous One Solution Cell Proliferation Assay (MTS) reagent was purchased from Promega (Madison, Wis., USA) and the assay was performed according to the manufacturer's instructions. Absorbance was measured at 490 nm using a microplate reader (Bio-tek, Powerwave X340, Winooski, Vt., USA).

The test system of a further data set is MDA-MB-453. The data set is described as above. It counts as cell-based. To be noted: Homo sapiens; MDA-MB-453, 72 hrs; read-out: IC50 value for complex cytotoxicity. As for the experimental part: as §1
Another data set deals with MDA-MB-231 breast tumors. The experiment in a line: MDA-MB-231 breast tumor xenograft efficacy study. It counts as in vivo, BALB/c-nu/nu mice. The text has this:
FIG. 6 (A) to (D) show the treatment of MDA-MB-231 breast tumors. (A) Net animal weight change (g) during the treatment. From the data, doxorubicin and Au/LKI-1/Dox was cause the weight loss over 20% and 3% in nude mice (N=3), respectively. […] (B) The inhibition of MDA-MD-231 breast tumor growth (N=3): Dox>Au/LKI-1/Dox>Au/PEG=PBS. (C) TEM images of MDA-MB-231 breast tumor cells treated with Au/LKI-1/Dox complex was easy determined the Au/LKI-1/Dox complex in the tumor in xenograft model. (D) Immunohistochemistry of tumor specimens. Breast tumor specimens were taken from the mice, embedded in paraffin and stained with hematoxylineosin.
BALB/c-nu/nu mice were purchased from BioLASCO Taiwan. Eight week old male mice were injected unilaterally with 1.0×10^7 MDA-MB-231 breast tumor cells in 200 μL of 50:50 Matrigel/Leibovitz's (L-15) into the dorsum by subcutaneous injection. (1) Vehicle-PBS (negative control), (2) Doxorubicin (positive control), 5 mg/kg, (3) Au/PEG, (4) Au/LKI-1/Dox complex, 5 mg/kg of Dox. Treatment was ongoing until clinical symptoms necessitated sacrifice. Mice were weighed a minimum of two times/weekly and were monitored tumor size until clinical symptoms necessitated sacrifice (see FIG. 6A, 6B). TEM images of MDA-MB-231 breast tumor cells treated with Au/LKI-1/Dox complex in xenograft model. […] (see FIG. 6C) H&E stain of MDA-MB-231 tumor cells treated with Au/LKI-1/Dox complex in xenograft model. (see FIG. 6D)

Data set [2] in a line: in vitro. To be noted: human, MCF7 breast adenocarcinoma cells.
From the text: (§2) After took photos, cells were counted by using hemocytometer.
Data set [3] is described as follows: in vitro. To be noted: human, MDA-MB-231 breast adenocarcinoma cells.
From the text: as §2
The nature of data set [4]: in vitro. To be noted: human, H184B5F5/M10 mammary epithelial cells.
From the text: as §2
Data set [5] is described as follows: in vitro. As to conditions: human, MDA-MB-453 breast adenocarcinoma cells.
From the text: as §2
The target in another data set is TNFα (Homo sapiens, UniProt P01375). The experiment in a line: Blocking of TNFα-induced MCF-7 cell apoptosis (MTS). To be noted: for Relative cell survival %: TNFα 12.5 ng/mL, MCF-7, 72 hours. It is filed as cell-based. The protocol: We further examined Au/LKI-1/ETA complex by binding with secondary antibody conjugated with 1-5 nm AuNPs. In TEM images of Au/LKI-1/ETA complex, binding of 1-5 nm gold-labeled secondary anti-human IgG antibodies to ETA located on the AuNP surface was observed (FIG. 4C). We further investigated the TNFα blocking ability of ETA and Au/LKI-1/ETA. MCF-7 cells (5×10^5) were treated with the mixtures of 12.5 ng/mL TNFα and 62.5, 125, 250, 500 ng/mL ETA or Au/LKI-1/ETA complex for 2 hours, respectively. The treated cells were incubated at 37° C. for 72 hours and then the cell numbers were counted by MTS [(3-(4,5-dimethylthiazol-2-yl)-5-(3-carboxymethoxyphenyl)-2-(4-sulfophenyl)-2H-tetrazolium)] assay. […] ETA and Au/LKI-1/ETA complex were used to test their abilities in blocking TNFα induced MCF-7 cell apoptosis, Table 4.
Chain of TNFα (P01375 77-233 limits assumed, species assumed): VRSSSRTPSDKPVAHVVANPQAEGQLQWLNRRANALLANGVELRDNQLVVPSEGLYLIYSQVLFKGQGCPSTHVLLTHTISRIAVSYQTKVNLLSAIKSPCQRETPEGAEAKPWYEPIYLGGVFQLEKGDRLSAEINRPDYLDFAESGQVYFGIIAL

On to `COc1cccc2c1C(=O)c1c(O)c3c(c(O)c1C2=O)C[C@@](O)(C(=O)CO)C[C@@H]3O[C@H]1C[C@H](N)[C@H](O)[C@H](C)O1` [Dox, doxorubicin], for which the IC50 (as a rule, the point on the concentration scale where inhibition reaches its midpoint) at 72 h in data set [1] came to 0.14 ± 0.034 µM. The IC50 in the data set on MDA-MB-453 was found to be 0.65 ± 0.072 µM. The “inhibition of MDA-MB-231 breast tumor growth (rank order)” value in the data set with MDA-MB-231 breast tumors (N=3, 5 mg/kg of Dox) was “Dox>Au/LKI-1/Dox>Au/PEG=PBS”. Moreover, in the data set on MDA-MB-231 breast tumors (nude mice (N=3), 5 mg/kg of Dox), the “weight loss during the treatment” value is recorded as “over 20%”. Besides, the “necrosis in tumor specimens (hematoxylin-eosin)” value in the data set with MDA-MB-231 breast tumors (xenograft tumors) is “more necrosis”.

On to `NNC(=O)OCCOCCNC(=O)CCCCC1CCSS1` (centres unmarked) [Linker I-1], for which the IC50 at 72 h in “in vitro [2]” came out at 692 ± 51.9 µM; in the data set “in vitro [3]” it was 529 ± 52.1 µM; in the data set “in vitro [4]”, 584 ± 62.7 µM; in the data set “in vitro [5]”, 299 ± 23 µM.

As for `NNC(=O)OCCNC(=O)CCCCC1CCSS1` (centres unmarked) [Linker I-2], the half-inhibitory concentration (IC50) at 72 h was determined as 730 ± 36.7 µM in “in vitro [2]”, 536 ± 21.6 µM in “in vitro [3]”, 686 ± 105 µM in “in vitro [4]” and 432 ± 96.6 µM in the data set “in vitro [5]”.

With `NNC(=O)OCCOCCOCCNC(=O)CCCCC1CCSS1` (centres unmarked) [Linker I-3], the IC50 at 72 h in “in vitro [2]” stood at 538 ± 39.6 µM; in the data set “in vitro [3]”, 454 ± 142 µM; in “in vitro [4]” it was 555 ± 33.5 µM; in “in vitro [5]”, 333 ± 9.8 µM.

Regarding `NNC(=O)OCCOCCOCCOCCNC(=O)CCCCC1CCSS1` (centres unmarked) [Linker I-4], the IC50 at 72 h was 569 ± 14.1 µM in the data set “in vitro [2]”, 576 ± 81.9 µM in the data set “in vitro [3]”, 560 ± 45.1 µM in “in vitro [4]” and 342 ± 11 µM in “in vitro [5]”.

Turning to `NNC(=O)OCCOCCOCCOCCOCCOCCNC(=O)CCCCC1CCSS1` (centres unmarked) [Linker I-5], the IC50 at 72 h is 419 ± 23.8 µM in the data set “in vitro [2]”, 484 ± 64.6 µM in the data set “in vitro [3]”, 569 ± 54.7 µM in “in vitro [4]” and 460 ± 87.9 µM in “in vitro [5]”.

With `NNC(=O)OCCNC(=O)CNC(=O)CCCCC1CCSS1` (centres unmarked) [Linker II-1], the IC50 at 72 h was 501 µM in “in vitro [2]”, 474 µM in the data set “in vitro [3]”, 500 µM in “in vitro [4]” and over 800 µM in the data set “in vitro [5]”.

As for `NNC(=O)OCCNC(=O)CNC(=O)CNC(=O)CCCCC1CCSS1` (centres unmarked) [Linker II-2], the IC50 at 72 h in “in vitro [2]”, in the data set “in vitro [3]”, in the data set “in vitro [4]” and in the data set “in vitro [5]” was over 800 µM each time.

With `NNC(=O)OCCNC(=O)CNC(=O)CNC(=O)CNC(=O)CCCCC1CCSS1` (centres unmarked) [Linker II-3], the IC50 at 72 h in “in vitro [2]” is over 800 µM; in “in vitro [3]”, 428 ± 116 µM; in the data set “in vitro [4]” it was 585 ± 132 µM; in the data set “in vitro [5]” it was over 800 µM.

For `NNC(=O)OCCOCCNC(=O)CCCCCS` [Linker SHI-1], the half-inhibitory concentration (IC50) at 72 h was over 800 µM in the data set “in vitro [2]”, 559 ± 23.3 µM in the data set “in vitro [3]”, over 800 µM in the data set “in vitro [4]” and 128 ± 15.1 µM in “in vitro [5]”.

For `NNC(=O)OCCOCCOCCOCCNC(=O)CCCCCS` [Linker SHI-4], the IC50 at 72 h in the data set “in vitro [2]” was over 800 µM; in “in vitro [3]”, 533 ± 63.9 µM; in the data set “in vitro [4]”, over 800 µM; in the data set “in vitro [5]”, 130 ± 13.4 µM.

Etanercept: the TNFα blocking ability result on TNFα (MCF-7 cells) is recorded as “TNFα blocking ability was observed”. For the same compound, the “Relative cell survival %” value on TNFα (dose 62.5 ng/mL) came out at 36.7 ± 1.4%; on TNFα (dose 125 ng/mL), 68.5 ± 2.3%; at TNFα (dose 250 ng/mL), 82.1 ± 6.5%; at TNFα (dose 500 ng/mL), 103.3 ± 0.9%.
